Assay results reported in patent US20200163334A1, “INSECT REPELLENT” (FMC Corporation, priority 2016, published 2020).

Columns and labels:
[1] = test system: Red imported fire ant (Solenopsis invicta); experiment: Fire ant repellency, baited plates near mounds (Example 6); format: in vivo; conditions: separate trial; about 100 mg per plate, within 4 feet of mounds
Text: Formulation A was poured into a plastic spray bottle and was sprayed onto 20, eight inch paper plates, one squeeze of the pump trigger per plate. […] Ten treated plates were placed randomly on the ground on a farm in Sparks, Ga., USA and ten control (untreated) plates were placed on the ground about 3 feet from the treated plates. Ten treated plates were placed about 4 feet from active Red imported fire ant mounds and ten control plates were placed near the same mounds no closer than 3 feet from the treated plates. Each plate received approximately 15 mL of an aqueous 25% honey solution.
Fifty percent of the control plates had active fire ant feeding within 15 minutes and 100% of the control plates had active fire ant feeding within 30 minutes.

insects = conditions: Table 1 of U.S. Pat. No. 6,958,146, 7,867,479 and 8,092,790; cited from earlier work
[2] = test system: house flies (Musca domesticae); conditions: U.S. Pat. No. 6,958,146, 7,867,479 and 8,092,790; cited from earlier work

COC(=O)c1ccccc1N [methyl anthranilate]
deterrence of fire ant feeding [1]: did not deter fire ants from feeding
insects on sticky traps (insects): quickly became covered with hundreds of insects
house fly response [2]: repelled
